The values that follow come from patent publication US20240308995A1, “O-GLYCOPROTEIN-2-ACETAMIDO-2-DEOXY-3-D-GLUCOPYRANOSIDASE INHIBITORS” (BIOGEN MA INC., priority 2018, published 2024).

For data set [1], the target named is Recombinant full length human OGA enzyme (Homo sapiens (Human), UniProt O60502). Briefly: OGA Enzyme Inhibition Biochemical Assay. The note with it: 1 nM OGA, 100 μM 4-MUGlcNAc, pH 6.4. The procedure:
Recombinant full length human OGA enzyme was purchased from Origene. 4-MUGlcNAc substrate was purchased from Sigma. All other reagents were purchased from Sigma or Fisher. Assay buffer consists of the McIlvaine buffer system, pH 6.4 (0.2M Na2HPO4 mixed with 0.1M citric acid) and 0.01% BSA. […] Reactions were incubated for 90 minutes at room temperature and quenched with 40 μl of 3M glycine, pH 10 and read on a Perkin Elmer Envision plate reader (Ex: 355 nm/Em: 460 nm). Compounds were tested with a 10-point dose-response starting from 20 μM with a 4-fold dilution. Data was fit using GraphPad Prism using a 4-parameter fit with variable slope.

Data set [2] has as its target OGA (S400 O-GLCNAC), HEK-293T cells transfected with Tau-V5 (Homo sapiens (Human), UniProt O60502). The data set can be described thus: Cellular OGA-Tau MSD Assay. Format: cell-based. The procedure: HEK-293T cells were transfected with […] and Tau-V5 plasmids using Lipofectamine and grown overnight. Next day, the cells were collected and re-plated at 1×10^5 cells per well in 96 well plates. Cells were incubated for 4 hr at 37° C., before compounds were added at 1 uM, with 3-fold dilutions in a 10-point titration. Cell plates were incubated with compounds overnight at 37° C. The next day media was removed from wells by gentle aspiration and 120 ul of 1× Cell Lysis buffer mixed with protease and phosphatase cocktail added to each well. A freeze thaw was performed at -80° C., then mixed before transferring 50 ul to MSD plates coated with V5-tag antibody to capture Tau. MSD Plates were incubated overnight at 4° C., on a plate shaker. The following day, plates were washed and incubated with Tau-[…]-GlcNAc antibody for 2 hr and then developed with rabbit Sulfo-tag antibody. Final read out was carried out on an MSD 600 reader. The data was analyzed using Graph Pad or Genedata, the data was normalized and % activity versus log of compound concentration was plotted. The IC50 values were obtained from a 4 parameter fit.

For data set [3], the system named is P-gp (MDR1). Briefly: MDR1-MDCK Efflux Ratio Assay. Format: in vitro ADME. The note with it: dog, MDCK-MDR1, pH 7.4, MDR1-MDCK cells, 2 hr, pH 7.4; read-out: MDR1-MDCK Efflux Ratio (B-A/A-B). The procedure:
MDR1-MDCK cell monolayers were grown to confluence on microporous polyester membranes in 96-well Corning insert plates. The permeability assay buffer was Hanks' Balanced Salt Solution containing 10 mM HEPES at pH of 7.4. Loperamide (1 μM) was used as a positive control P-gp substrate. Propranolol and Bestatin (1 μM) were used as high and low permeability comparators, respectively. Test compounds or positive control P-gp substrate/permeability comprators were added to respective apical and basolateral chambers for bidirectional assessment of permeability. Receiver buffer (transport buffer supplemented with 1% bovine serum albumin) was added to respective receiver chambers. MDR1-MDCK cells were incubated with test compounds at 37° C. with 5% CO2 for 2 hr. Samples were collected from the donor chamber at both 0 and 120 minutes, and from the receiver chamber at 120 minutes. Test and control compound concentrations were determined using LC-MS/MS analysis. Each determination was performed in triplicate. The apparent permeability (Papp), efflux ratio and mass balance (percent recovery) were calculated as follows: [formula] where: dCr/dt is the cumulative concentration in the receiver compartment versus time in μM s^−1 Vr is the volume of the receiver compartment in cm^3 Vd is the volume of the donor compartment in cm^3 A is the area of the insert (0.143 cm^2 for 96-well insert) CE is the estimated experimental concentration (Time=0) of the dosing solution Cr^final is the concentration of the receiver at the end of the incubation period Cd^final is the concentration of the donor at the end of the incubation period.

Data set [4] is described as follows: Rat Liver Microsome Stability Assay. Format: in vitro ADME. The note with it: rat liver microsomes, 1 uM compound.
Where [5] appears, read: HEK-293T cells, Tau-S400-GlcNAc MSD readout.

Sequence of Recombinant full length human OGA enzyme (O60502 whole entry): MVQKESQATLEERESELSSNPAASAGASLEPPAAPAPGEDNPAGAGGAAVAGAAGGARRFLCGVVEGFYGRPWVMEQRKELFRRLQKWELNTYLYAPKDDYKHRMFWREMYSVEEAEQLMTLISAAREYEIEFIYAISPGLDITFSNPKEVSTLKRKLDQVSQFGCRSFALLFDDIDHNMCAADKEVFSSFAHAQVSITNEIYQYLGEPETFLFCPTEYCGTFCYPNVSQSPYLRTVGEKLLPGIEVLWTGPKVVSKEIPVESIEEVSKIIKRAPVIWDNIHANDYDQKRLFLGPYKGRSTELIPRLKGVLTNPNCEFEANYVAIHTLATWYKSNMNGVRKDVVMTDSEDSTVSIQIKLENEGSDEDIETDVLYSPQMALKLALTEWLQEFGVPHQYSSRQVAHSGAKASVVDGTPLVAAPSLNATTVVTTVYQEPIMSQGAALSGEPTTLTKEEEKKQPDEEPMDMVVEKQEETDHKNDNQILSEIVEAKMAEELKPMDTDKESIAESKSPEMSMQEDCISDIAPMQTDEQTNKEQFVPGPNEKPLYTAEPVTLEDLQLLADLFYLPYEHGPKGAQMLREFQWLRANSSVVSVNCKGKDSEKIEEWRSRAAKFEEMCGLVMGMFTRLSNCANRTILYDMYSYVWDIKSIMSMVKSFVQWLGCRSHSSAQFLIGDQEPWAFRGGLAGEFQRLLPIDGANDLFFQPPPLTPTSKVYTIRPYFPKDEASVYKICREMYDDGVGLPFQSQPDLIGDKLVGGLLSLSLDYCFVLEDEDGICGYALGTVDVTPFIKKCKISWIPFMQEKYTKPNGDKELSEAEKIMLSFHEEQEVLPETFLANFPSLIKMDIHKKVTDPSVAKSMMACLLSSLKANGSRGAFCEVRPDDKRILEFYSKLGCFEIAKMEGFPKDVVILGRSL
Sequence of OGA (S400 O-GLCNAC), HEK-293T cells transfected with Tau-V5 (O60502 whole entry): as above

As usually defined, the IC50 is the midpoint of a concentration-inhibition curve. As to `[2H]C([2H])([2H])Oc1cc(O[C@@H]2C[C@H](C)N(Cc3cnc(NC(C)=O)s3)C2)ncn1` (single isomer, unassigned) [Example 1-154], the IC50 was below 1 nM in data set [1] and 2 nM in data set [2] (setting [5]). In addition, the efflux ratio at 2 h in data set [3] turned out to be 4.3. Further, the “RLM % Qh (%)” value in data set [4] was 27%.

On to `[2H]C([2H])([2H])C(=O)Nc1ncc(CN2C[C@H](Oc3cc(OC)ncn3)C[C@@H]2C)s1` (single isomer, unassigned) [Example 1-156], for which the half-maximal inhibitory concentration (IC50) is below 1 nM in data set [1] and 2 nM in data set [2] (setting [5]). The efflux ratio at 2 h in data set [3] is 5.2. Also, the “RLM % Qh (%)” value in data set [4] is given as 35%.

On to `[2H]C(c1cnc(NC(C)=O)s1)N1C[C@H](Oc2cc(OC)ncn2)C[C@@H]1C` (single isomer, unassigned) [Example 1-158], for which the values for the 50% inhibitory concentration (IC50) in data set [1] and in data set [2] (setting [5]) were below 1 nM and 3 nM, respectively. For the same compound, in data set [3], the efflux ratio at 2 h was 5.2. Besides, the “RLM % Qh (%)” value in data set [4] turned out to be 29%.

Turning to `[2H]C([2H])(c1cnc(NC(C)=O)s1)N1C[C@H](Oc2cc(OC)ncn2)C[C@@H]1C` (single isomer, unassigned) [Example 1-160], the IC50 in data set [1] is below 1 nM; in data set [2] (setting [5]), 3 nM. The efflux ratio at 2 h in data set [3] was determined as 4.6. In addition, in data set [4], the “RLM % Qh (%)” value was 29%.

As for `[2H]c1nc(NC(C)=O)sc1CN1C[C@H](Oc2cc(OC)ncn2)C[C@@H]1C` (single isomer, unassigned) [Example 1-162], the IC50 in data set [1] was below 1 nM; in data set [2] (setting [5]) it was 19 nM. Also, the efflux ratio at 2 h in data set [3] came to 6.2. Also, the “RLM % Qh (%)” value in data set [4] came out at 35%.

In the case of `[2H][C@@]1(Oc2cc(OC)ncn2)C[C@H](C)N(Cc2cnc(NC(C)=O)s2)C1` (single isomer, unassigned) [Example 1-163], the figures for the IC50 in data set [1] and in data set [2] (setting [5]) were below 1 nM and 4 nM, respectively. In addition, the efflux ratio at 2 h in data set [3] amounted to 5.9. The “RLM % Qh (%)” value in data set [4] is 30%.

Consider `CC(=O)Nc1ncc(CN2C[C@H](Oc3cc(Cl)ncn3)C[C@@H]2C)s1` [Example 1-21, N-(5-(((2S,4R)-4-((6-chloropyrimidin-4-yl)oxy)-2-methylpyrrolidin-1-yl)methyl)thiazol-2-yl)acetamide], for which the IC50 is below 1 nM in data set [1]; 7 nM in data set [2] (setting [5]); 8 nM in data set [2] (repeated assay, value marked with asterisk (*)). Besides, the efflux ratio at 2 h in data set [3] is 3.8.

`CC(=O)Nc1nc(F)c(CN2C[C@@H](Oc3cc(C)nc(C)c3)CC[C@@H]2C)s1` [Example 1-56, N-(5-(((2S,5S)-5-((2,6-dimethylpyridin-4-yl)oxy)-2-methylpiperidin-1-yl)methyl)-4-fluorothiazol-2-yl)acetamide]: the IC50 in data set [1] is below 1 nM. Further, the efflux ratio at 2 h in data set [3] is 21.8. The “RLM % Qh (%)” value in data set [4] worked out at 91%.

For the compound `CC(=O)Nc1ncc(CN2C[C@H](Oc3cc(OCC(F)(F)F)ncn3)C[C@@H]2C)s1` [Example 1-77], the half-inhibitory concentration (IC50) is below 1 nM in data set [1] and 10 nM in data set [2] (setting [5]). Besides, the “RLM % Qh (%)” value in data set [4] is 58%.

As to `CC(=O)Nc1ncc(CN2C[C@H](Oc3cc(C(F)(F)F)ncn3)C[C@@H]2C)s1` [Example 1-79, N-(5-(((2S,4R)-2-methyl-4-((6-(trifluoromethyl)pyrimidin-4-yl)oxy)pyrrolidin-1-yl)methyl)thiazol-2-yl)acetamide], the IC50 is 11 nM in data set [1] and 41 nM in data set [2] (setting [5]).

Turning to `CC(=O)Nc1ncc(CN2C[C@H](Oc3ncc(C)nc3C)C[C@@H]2C)s1` [Example 1-81, N-(5-(((2S,4R)-4-((3,5-dimethylpyrazin-2-yl)oxy)-2-methylpyrrolidin-1-yl)methyl)thiazol-2-yl)acetamide], the IC50 in data set [1] came out at 8.4 nM. Besides, the efflux ratio at 2 h in data set [3] came to 7.3. In addition, the “RLM % Qh (%)” value in data set [4] is on record as 74%.

Turning to `COc1ccc(O[C@@H]2C[C@H](C)N(Cc3sc(NC(C)=O)nc3F)C2)nn1` [Example 1-84, N-(4-fluoro-5-(((2S,4R)-4-((6-methoxypyridazin-3-yl)oxy)-2-methylpyrrolidin-1-yl)methyl)thiazol-2-yl)acetamide], the IC50 in data set [1] was below 1 nM; in data set [2] (setting [5]), 1 nM.

`COc1cc(O[C@@H]2C[C@H](C)N(Cc3sc(NC(C)=O)nc3F)C2)ccn1` [Example 1-100, N-(4-fluoro-5-(((2S,4R)-4-((2-methoxypyridin-4-yl)oxy)-2-methylpyrrolidin-1-yl)methyl)thiazol-2-yl)acetamide]: the half-inhibitory concentration (IC50) in data set [1] was below 1 nM; in data set [2] (setting [5]), 1 nM.

Take `CC(=O)Nc1nc(F)c(CN2C[C@H](Oc3ncc(C)nc3C)C[C@@H]2C)s1` [Example 1-106, N-(5-(((2S,4R)-4-((3,5-dimethylpyrazin-2-yl)oxy)-2-methylpyrrolidin-1-yl)methyl)-4-fluorothiazol-2-yl)acetamide]: the IC50 in data set [1] is 2.4 nM. The efflux ratio at 2 h in data set [3] was 4.6. Besides, the “RLM % Qh (%)” value in data set [4] was found to be 86%.

For the compound `CC(=O)Nc1nc(F)c(CN2C[C@H](Oc3cc(C)ncc3C)C[C@@H]2C)s1` [Example 1-107, N-(5-(((2S,4R)-4-((2,5-dimethylpyridin-4-yl)oxy)-2-methylpyrrolidin-1-yl)methyl)-4-fluorothiazol-2-yl)acetamide], the half-maximal inhibitory concentration (IC50) in data set [1] is 1.7 nM. Moreover, in data set [3], the efflux ratio at 2 h was 17.2. For the same compound, in data set [4], the “RLM % Qh (%)” value was 58%.

Turning to `CC(=O)Nc1nc(F)c(CN2C[C@H](Oc3ccc(F)nn3)C[C@@H]2C)s1` [Example 1-111, N-(4-fluoro-5-(((2S,4R)-4-((6-fluoropyridazin-3-yl)oxy)-2-methylpyrrolidin-1-yl)methyl)thiazol-2-yl)acetamide], the IC50 in data set [1] is below 1 nM; in data set [2] (setting [5]), 1 nM.

For the compound `CC(=O)Nc1ncc(CN2C[C@H](Oc3cc(OC4CCC4)ncn3)C[C@@H]2C)s1` [Example 1-121, N-(5-(((2S,4R)-4-((6-cyclobutoxypyrimidin-4-yl)oxy)-2-methylpyrrolidin-1-yl)methyl)thiazol-2-yl)acetamide], the IC50 is below 1 nM in data set [1] and 3 nM in data set [2] (setting [5]).

Consider `CC(=O)Nc1ncc(CN2C[C@H](Oc3cc(OC4CN(C)C4)ncn3)C[C@@H]2C)s1` [Example 1-125, N-(5-(((2S,4R)-2-methyl-4-((6-((1-methylazetidin-3-yl)oxy)pyrimidin-4-yl)oxy)pyrrolidin-1-yl)methyl)thiazol-2-yl)acetamide], for which the half-inhibitory concentration (IC50) in data set [1] was found to be 1.4 nM. Moreover, in data set [3], the efflux ratio at 2 h worked out at 1. The “RLM % Qh (%)” value in data set [4] was 54%.

`CNc1cc(O[C@@H]2C[C@H](C)N(Cc3cnc(NC(C)=O)s3)C2)ncn1` [Example 1-137, N-(5-(((2S,4R)-2-methyl-4-((6-(methylamino)pyrimidin-4-yl)oxy)pyrrolidin-1-yl)methyl)thiazol-2-yl)acetamide]: the half-inhibitory concentration (IC50) in data set [1] is below 1 nM; in data set [2] (setting [5]), 2 nM.

Consider `CC(=O)Nc1nc(F)c(CN2C[C@H](Oc3cc(OC4CN(C)C4)ncn3)C[C@@H]2C)s1` [Example 1-141, N-(4-fluoro-5-(((2S,4R)-2-methyl-4-((6-((1-methylazetidin-3-yl)oxy)pyrimidin-4-yl)oxy)pyrrolidin-1-yl)methyl)thiazol-2-yl)acetamide], for which the 50% inhibitory concentration (IC50) in data set [1] is 1 nM; in data set [2] (setting [5]) it was 7 nM.

Regarding `[2H][C@]1(Oc2cc(OC)ncn2)C[C@H](C)N(Cc2sc(NC(C)=O)nc2F)C1` [Example 1-166, N-(4-fluoro-5-(((2S,4S)-4-((6-methoxypyrimidin-4-yl)oxy)-2-methylpyrrolidin-1-yl-4-d)methyl)thiazol-2-yl)acetamide], the figures for the half-inhibitory concentration (IC50) in data set [1] and in data set [2] (setting [5]) were 13 nM and 11 nM, respectively.
